Results: PubChem BioAssay (NCI)
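Values below derive from 48-hour exposures of cells grown in 96-well plates, with endpoints linearly interpolated between the two concentrations bracketing the appropriate inhibition level. Here, GI50 denotes the concentration required for 50% inhibition of growth. Definition used: TGI = concentration required for complete inhibition of growth.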

Tests used:
Experiment in all cases: DTP human tumour cell line panel, 48 h
MCF7 breast = test system: MCF7 breast
SW-620 colon = test system: SW-620 colon
DU-145 prostate = test system: DU-145 prostate
UO-31 renal = test system: UO-31 renal
786-0 renal = test system: 786-0 renal
NCI/ADR-RES ovarian = test system: NCI/ADR-RES ovarian
SF-295 CNS = test system: SF-295 CNS
HT29 colon = test system: HT29 colon
A549 NSCLC = test system: A549 NSCLC
SF-268 CNS = test system: SF-268 CNS
SNB-19 CNS = test system: SNB-19 CNS
CCRF-CEM leukemia = test system: CCRF-CEM leukemia
COLO 205 colon = test system: COLO 205 colon
TK-10 renal = test system: TK-10 renal
RPMI-8226 leukemia = test system: RPMI-8226 leukemia
NCI-H522 lung = test system: NCI-H522 lung
BT-549 breast = test system: BT-549 breast
SN12C renal = test system: SN12C renal
MOLT-4 leukemia = test system: MOLT-4 leukemia
K-562 leukemia = test system: K-562 leukemia
HS 578T breast = test system: HS 578T breast
OVCAR-8 ovarian = test system: OVCAR-8 ovarian
HL-60(TB) leukemia = test system: HL-60(TB) leukemia
M14 melanoma = test system: M14 melanoma
IGROV1 ovarian = test system: IGROV1 ovarian
SF-539 CNS = test system: SF-539 CNS
HOP-62 NSCLC = test system: HOP-62 NSCLC
LOX IMVI melanoma = test system: LOX IMVI melanoma
SNB-75 CNS = test system: SNB-75 CNS
UACC-62 melanoma = test system: UACC-62 melanoma
A498 renal = test system: A498 renal
SK-MEL-28 melanoma = test system: SK-MEL-28 melanoma
HCT-15 colon = test system: HCT-15 colon
SK-MEL-2 melanoma = test system: SK-MEL-2 melanoma
RXF 393 renal = test system: RXF 393 renal
NCI-H226 lung = test system: NCI-H226 lung
T-47D breast = test system: T-47D breast
KM12 colon = test system: KM12 colon
HCC-2998 colon = test system: HCC-2998 colon
OVCAR-3 ovarian = test system: OVCAR-3 ovarian
OVCAR-5 ovarian = test system: OVCAR-5 ovarian
HOP-92 NSCLC = test system: HOP-92 NSCLC
EKVX NSCLC = test system: EKVX NSCLC
U251 CNS = test system: U251 CNS
PC-3 prostate = test system: PC-3 prostate
SK-MEL-5 melanoma = test system: SK-MEL-5 melanoma
OVCAR-4 ovarian = test system: OVCAR-4 ovarian
HCT-116 colon = test system: HCT-116 colon
NCI-H460 lung = test system: NCI-H460 lung
SR leukemia = test system: SR leukemia
UACC-257 melanoma = test system: UACC-257 melanoma
ACHN renal = test system: ACHN renal
SK-OV-3 ovarian = test system: SK-OV-3 ovarian
NCI-H23 lung = test system: NCI-H23 lung
MDA-MB-231 breast = test system: MDA-MB-231 breast
MDA-MB-435 = test system: MDA-MB-435
CAKI-1 renal = test system: CAKI-1 renal
MALME-3M melanoma = test system: MALME-3M melanoma

## COc1cc2c3c(n([C@@H]4CCOC4)c(=O)c2cc1OC)-c1cc2c(cc1C3=O)OCO2
MCF7 breast
  GI50: < 0.01 µM
  TGI: > 100 µM
SW-620 colon
  GI50: < 0.01 µM
  TGI: > 100 µM
DU-145 prostate
  GI50: < 0.01 µM
  TGI: > 100 µM
UO-31 renal
  GI50: < 0.01 µM
  TGI: > 100 µM
786-0 renal
  GI50: < 0.01 µM
  TGI: 0.0183 µM
NCI/ADR-RES ovarian
  GI50: < 0.01 µM
  TGI: > 100 µM
SF-295 CNS
  GI50: < 0.01 µM
  TGI: 0.0219 µM
HT29 colon
  GI50: 0.0141 µM
  TGI: > 100 µM
A549 NSCLC
  GI50: 0.0107 µM
  TGI: > 100 µM
SF-268 CNS
  GI50: < 0.01 µM
  TGI: > 100 µM
SNB-19 CNS
  GI50: < 0.01 µM
  TGI: > 100 µM
CCRF-CEM leukemia
  GI50: < 0.01 µM
  TGI: > 100 µM
COLO 205 colon
  GI50: 0.0193 µM
  TGI: > 100 µM
TK-10 renal
  GI50: > 100 µM
  TGI: > 100 µM
RPMI-8226 leukemia
  GI50: 0.0127 µM
  TGI: > 100 µM
NCI-H522 lung
  GI50: < 0.01 µM
  TGI: > 100 µM
BT-549 breast
  GI50: 0.0218 µM
  TGI: > 100 µM
SN12C renal
  GI50: < 0.01 µM
  TGI: > 100 µM
MOLT-4 leukemia
  GI50: < 0.01 µM
  TGI: > 100 µM
K-562 leukemia
  GI50: 0.0166 µM
  TGI: > 100 µM
HS 578T breast
  GI50: > 100 µM
  TGI: > 100 µM
OVCAR-8 ovarian
  GI50: 0.0132 µM
  TGI: > 100 µM
HL-60(TB) leukemia
  GI50: < 0.01 µM
  TGI: > 100 µM
M14 melanoma
  GI50: < 0.01 µM
  TGI: > 100 µM
IGROV1 ovarian
  GI50: 0.0537 µM
  TGI: > 100 µM
SF-539 CNS
  GI50: < 0.01 µM
  TGI: 0.0208 µM

## CC(=O)CCc1ccc(Oc2c3c(nc4ccccc24)OCC3)cc1
MCF7 breast
  GI50: 60.6 µM
  TGI: > 100 µM
HOP-62 NSCLC
  GI50: > 100 µM
  TGI: > 100 µM
SW-620 colon
  GI50: > 100 µM
  TGI: > 100 µM
LOX IMVI melanoma
  GI50: > 100 µM
  TGI: > 100 µM
DU-145 prostate
  GI50: > 100 µM
  TGI: > 100 µM
UO-31 renal
  GI50: 54.4 µM
  TGI: > 100 µM
SNB-75 CNS
  GI50: 14.3 µM
  TGI: 61.7 µM
786-0 renal
  GI50: > 100 µM
  TGI: > 100 µM
NCI/ADR-RES ovarian
  GI50: 29.5 µM
  TGI: > 100 µM
UACC-62 melanoma
  GI50: 34.1 µM
  TGI: > 100 µM
HT29 colon
  GI50: > 100 µM
  TGI: > 100 µM
A498 renal
  GI50: 9.22 µM
  TGI: 50.1 µM
SK-MEL-28 melanoma
  GI50: 44.9 µM
  TGI: > 100 µM
HCT-15 colon
  GI50: 58.8 µM
  TGI: > 100 µM
A549 NSCLC
  GI50: 11.7 µM
  TGI: > 100 µM
SK-MEL-2 melanoma
  GI50: > 100 µM
  TGI: > 100 µM
RXF 393 renal
  GI50: 22.3 µM
  TGI: > 100 µM
NCI-H226 lung
  GI50: 12.3 µM
  TGI: 78.8 µM
T-47D breast
  GI50: 3.7 µM
  TGI: 23.6 µM
KM12 colon
  GI50: > 100 µM
  TGI: > 100 µM
SF-268 CNS
  GI50: 27.5 µM
  TGI: > 100 µM
SNB-19 CNS
  GI50: > 100 µM
  TGI: > 100 µM
CCRF-CEM leukemia
  GI50: > 100 µM
  TGI: > 100 µM
HCC-2998 colon
  GI50: 32.5 µM
  TGI: 91.8 µM
OVCAR-3 ovarian
  GI50: 31.6 µM
  TGI: > 100 µM
COLO 205 colon
  GI50: > 100 µM
  TGI: > 100 µM
OVCAR-5 ovarian
  GI50: 77 µM
  TGI: > 100 µM
HOP-92 NSCLC
  GI50: 42.9 µM
  TGI: > 100 µM
EKVX NSCLC
  GI50: 13.8 µM
  TGI: 98.6 µM
RPMI-8226 leukemia
  GI50: 67.7 µM
  TGI: > 100 µM
U251 CNS
  GI50: 41.7 µM
  TGI: > 100 µM
NCI-H522 lung
  GI50: 56.2 µM
  TGI: > 100 µM
PC-3 prostate
  GI50: 82.3 µM
  TGI: > 100 µM
BT-549 breast
  GI50: 67.5 µM
  TGI: > 100 µM
MOLT-4 leukemia
  GI50: 91.9 µM
  TGI: > 100 µM
SK-MEL-5 melanoma
  GI50: 16.6 µM
  TGI: 55.1 µM
K-562 leukemia
  GI50: 59.3 µM
  TGI: > 100 µM
OVCAR-4 ovarian
  GI50: > 100 µM
  TGI: > 100 µM
HCT-116 colon
  GI50: > 100 µM
  TGI: > 100 µM
NCI-H460 lung
  GI50: 29.4 µM
  TGI: > 100 µM
HS 578T breast
  GI50: 71.4 µM
  TGI: > 100 µM
SR leukemia
  GI50: 60.2 µM
  TGI: > 100 µM
UACC-257 melanoma
  GI50: 3.12 µM
  TGI: 30.2 µM
ACHN renal
  GI50: 53.9 µM
  TGI: > 100 µM
SK-OV-3 ovarian
  GI50: 62.1 µM
  TGI: > 100 µM
OVCAR-8 ovarian
  GI50: 3.76 µM
  TGI: > 100 µM
NCI-H23 lung
  GI50: 35.3 µM
  TGI: > 100 µM
M14 melanoma
  GI50: > 100 µM
  TGI: > 100 µM
MDA-MB-231 breast
  GI50: 52 µM
  TGI: > 100 µM
IGROV1 ovarian
  GI50: > 100 µM
  TGI: > 100 µM
SF-539 CNS
  GI50: 85.7 µM
  TGI: > 100 µM

## S=c1[nH]n2c(COc3ccc(Cl)cc3)nnc2s1
MCF7 breast
  TGI: > 100 µM
HOP-62 NSCLC
  TGI: > 100 µM
SW-620 colon
  TGI: > 100 µM
DU-145 prostate
  TGI: > 100 µM
UO-31 renal
  TGI: > 100 µM
SNB-75 CNS
  TGI: > 100 µM
786-0 renal
  TGI: > 100 µM
NCI/ADR-RES ovarian
  TGI: > 100 µM
UACC-62 melanoma
  TGI: > 100 µM
SF-295 CNS
  TGI: > 100 µM
HT29 colon
  TGI: > 100 µM
SK-MEL-28 melanoma
  TGI: > 100 µM
HCT-15 colon
  TGI: > 100 µM
A549 NSCLC
  TGI: > 100 µM
SK-MEL-2 melanoma
  TGI: > 100 µM
RXF 393 renal
  TGI: > 100 µM
NCI-H226 lung
  TGI: > 100 µM
T-47D breast
  TGI: > 100 µM
KM12 colon
  TGI: > 100 µM
SF-268 CNS
  TGI: > 100 µM
SNB-19 CNS
  TGI: > 100 µM
HCC-2998 colon
  TGI: > 100 µM
OVCAR-3 ovarian
  TGI: > 100 µM
COLO 205 colon
  TGI: > 100 µM
OVCAR-5 ovarian
  TGI: > 100 µM
HOP-92 NSCLC
  TGI: > 100 µM
TK-10 renal
  TGI: > 100 µM
MDA-MB-435
  TGI: > 100 µM
EKVX NSCLC
  TGI: > 100 µM
RPMI-8226 leukemia
  TGI: > 100 µM
U251 CNS
  TGI: > 100 µM
CAKI-1 renal
  TGI: > 100 µM
NCI-H522 lung
  TGI: > 100 µM
PC-3 prostate
  TGI: > 100 µM
SN12C renal
  TGI: > 100 µM
MOLT-4 leukemia
  TGI: > 100 µM
SK-MEL-5 melanoma
  TGI: > 100 µM
K-562 leukemia
  TGI: > 100 µM
OVCAR-4 ovarian
  TGI: > 100 µM
HCT-116 colon
  TGI: > 100 µM
NCI-H460 lung
  TGI: > 100 µM
SR leukemia
  TGI: > 100 µM
MALME-3M melanoma
  TGI: > 100 µM
UACC-257 melanoma
  TGI: > 100 µM
ACHN renal
  TGI: > 100 µM
SK-OV-3 ovarian
  TGI: > 100 µM
OVCAR-8 ovarian
  TGI: > 100 µM
NCI-H23 lung
  TGI: > 100 µM
HL-60(TB) leukemia
  TGI: > 100 µM
M14 melanoma
  TGI: > 100 µM
MDA-MB-231 breast
  TGI: > 100 µM
IGROV1 ovarian
  TGI: > 100 µM
SF-539 CNS
  TGI: > 100 µM
